# Test results from patent US10988474B2, “Compounds acting at multiple prostaglandin receptors giving a general anti-inflammatory response” (ALLERGAN, INC., priority 2011, dated 2021).
# Experiments:
# Format in all cases: cell-based
# [1] = target: T1, human prostanoid EP4 receptor (Homo sapiens, UniProt P35408); assay: FLIPR Ca2+ signaling PG antagonist assay, EP4 stable cell line; conditions: HEK-293 EBNA cells, human recombinant EP4 with chimeric Gqs; standard agonist PGE2
# T1 construct: expressed in transfected cells
# Method in brief: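 Antagonism at human EP4 was assessed as a Ca^2+ signal in stable HEK-293 EBNA transfectants carrying chimeric Gqs. Dye-loaded cells in HBSS-HEPES at 37° C received test compound, then a 7-point 10-fold PGE2 series. Fluorescence was excited at 470-495 nm and read at 515-575 nm for 3.5 minutes, with each condition run in triplicate and buffer used as the negative control.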
# [2] = target: T2, human prostanoid IP receptor (Homo sapiens, UniProt P43119); assay: FLIPR Ca2+ signaling PG antagonist assay, IP stable cell line; conditions: HEK-293 EBNA cells, human recombinant IP, no exogenous G-protein; standard agonist Cicaprost
# T2 construct: expressed in transfected cells
# Method in brief: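 HEK-293 EBNA stable lines; EP2 co-expressed with chimeric Gqs, EP1/IP/TP with no exogenous G protein. Fluo-4AM-loaded cells pretreated 4.5 min at 37 °C with compound (0.1–30 μM; TP 0.067–1 μM), then standard agonist (PGE2, cicaprost, U-46619) 10^−11–10^−5 M (TP 10^−12–10^−6 M); peak fluorescence read 3.5 min, nonlinear regression.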
# [3] = target: T3, human prostanoid DP1 receptor (Homo sapiens, UniProt Q13258); assay: FLIPR Ca2+ signaling PG antagonist assay, DP1 stable cell line; conditions: HEK-293 EBNA cells, human recombinant DP1 with chimeric Gqs; standard agonist BW 245C; read-out: DP (Kb, PG antagonist activity)
# T3 construct: expressed in transfected cells
# T3 sequence (Q13258 1-359): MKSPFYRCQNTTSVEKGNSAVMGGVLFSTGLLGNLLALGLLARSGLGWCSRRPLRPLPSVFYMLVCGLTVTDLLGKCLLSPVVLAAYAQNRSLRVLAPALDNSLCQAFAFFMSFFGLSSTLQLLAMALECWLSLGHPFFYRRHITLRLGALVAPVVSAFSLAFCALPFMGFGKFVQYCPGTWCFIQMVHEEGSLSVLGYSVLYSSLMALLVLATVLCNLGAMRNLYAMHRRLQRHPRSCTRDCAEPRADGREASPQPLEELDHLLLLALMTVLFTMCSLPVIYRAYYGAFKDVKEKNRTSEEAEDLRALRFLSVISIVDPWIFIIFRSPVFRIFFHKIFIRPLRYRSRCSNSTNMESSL
# Method in brief: (§1)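 Stable HEK-293 EBNA lines (DP1 with chimeric Gqs, EP3 with Gqi, EP1 and FP without exogenous G protein) were Fluo-4AM-loaded and pretreated 4.5 min at 37 °C with compound (0.1–30 μM). Agonist (BW 245C for DP1, PGE2 for EP1/EP3, 17-phenyl-PGF2α for FP) was then added at 10^−11–10^−5 M. Peak Ca2+ fluorescence was taken relative to agonist at 10^−6 M.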
# [4] = target: T4, human prostanoid EP3 receptor (Homo sapiens, UniProt P43115); assay: FLIPR Ca2+ signaling PG antagonist assay, EP3 stable cell line; conditions: HEK-293 EBNA cells, human recombinant EP3 with chimeric Gqi; standard agonist PGE2
# T4 construct: expressed in transfected cells
# T4 sequence (P43115 1-390): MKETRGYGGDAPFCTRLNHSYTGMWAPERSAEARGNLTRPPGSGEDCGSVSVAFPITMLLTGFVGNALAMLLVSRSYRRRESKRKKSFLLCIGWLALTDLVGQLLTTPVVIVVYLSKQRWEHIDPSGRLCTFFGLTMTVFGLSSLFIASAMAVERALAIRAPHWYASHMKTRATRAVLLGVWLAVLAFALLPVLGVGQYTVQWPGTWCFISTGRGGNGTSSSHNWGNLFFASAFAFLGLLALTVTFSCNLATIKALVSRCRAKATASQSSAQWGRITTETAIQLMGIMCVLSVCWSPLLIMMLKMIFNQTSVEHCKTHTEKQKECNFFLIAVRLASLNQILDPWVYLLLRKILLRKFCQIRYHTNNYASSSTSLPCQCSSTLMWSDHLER
# Method in brief: as §1
# T2 sequence (P43119 whole entry): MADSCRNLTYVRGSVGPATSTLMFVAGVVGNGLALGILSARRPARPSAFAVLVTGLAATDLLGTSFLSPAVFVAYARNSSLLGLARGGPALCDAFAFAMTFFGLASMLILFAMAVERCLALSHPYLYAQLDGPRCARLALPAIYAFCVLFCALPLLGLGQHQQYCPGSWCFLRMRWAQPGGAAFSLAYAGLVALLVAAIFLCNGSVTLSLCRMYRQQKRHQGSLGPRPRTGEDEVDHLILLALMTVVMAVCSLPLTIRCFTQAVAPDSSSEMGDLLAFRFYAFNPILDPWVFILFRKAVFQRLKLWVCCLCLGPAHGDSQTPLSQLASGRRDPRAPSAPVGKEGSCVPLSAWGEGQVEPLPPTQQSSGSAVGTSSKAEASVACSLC
# T1 sequence (P35408 whole entry): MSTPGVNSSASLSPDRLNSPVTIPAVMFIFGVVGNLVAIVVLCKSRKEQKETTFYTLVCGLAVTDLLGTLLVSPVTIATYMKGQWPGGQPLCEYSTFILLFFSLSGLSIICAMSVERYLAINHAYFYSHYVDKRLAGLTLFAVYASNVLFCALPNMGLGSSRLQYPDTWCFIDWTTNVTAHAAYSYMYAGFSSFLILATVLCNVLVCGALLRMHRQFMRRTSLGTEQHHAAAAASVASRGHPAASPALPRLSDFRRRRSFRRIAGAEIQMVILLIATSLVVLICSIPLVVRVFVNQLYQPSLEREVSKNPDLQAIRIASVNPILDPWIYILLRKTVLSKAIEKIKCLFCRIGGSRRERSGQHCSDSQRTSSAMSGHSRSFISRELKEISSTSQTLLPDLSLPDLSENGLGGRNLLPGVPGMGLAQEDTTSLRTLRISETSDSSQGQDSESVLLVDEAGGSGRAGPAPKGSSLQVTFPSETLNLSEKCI
SMILES,Kb [1],Kb [2],Kb [3],Kb [4]
"Cc1ccc(OCC(C)C)c(Cn2ncc3cc(C(=O)O)ccc32)n1 [Example 50, 1-(3-Isobutoxy-6-Methyl-Pyridin-2-ylmethyl)-1H-Indazole-5-Carboxylic Acid]",1800 nM,≥ 10000 nM,2400 nM,7100 nM
CC(C)COc1ccc(C(F)(F)F)cc1Cn1ncc2cc(C(=O)O)ccc21 [Example 18],60 nM,6500 nM,1400 nM,4000 nM
"CC(C)COc1ccc(Cl)cc1Cn1cc2c(C(=O)O)cccc2n1 [Example 37, 2-(5-Chloro-2-Isobutoxy-Benzyl)-2H-Indazole-4-Carboxylic Acid]",700 nM,≥ 10000 nM,1300 nM,3400 nM
"O=C(O)c1ccc2c(cnn2Cc2cc(Br)ccc2OCC2CC2)c1 [Example 15, 1-(5-Bromo-2-Cyclopropylmethoxy-Benzyl)-1H-Indazole-5-Carboxylic Acid]",200 nM,1800 nM,1800 nM,8400 nM
"CC(C)COc1ccc(OC(F)F)cc1Cn1ncc2cc(C(=O)O)ccc21 [Example 56, 1-(5-Difluoromethoxy-2-Isobutoxy-Benzyl)-1H-Indazole-5-Carboxylic Acid]",150 nM,4100 nM,1800 nM,8800 nM
"CCC(CC)COc1ccc(Cl)cc1Cn1ccc2cc(C(=O)O)ccc21 [Example 1, 1-[5-Chloro-2-(2-Ethyl-Butoxy)-Benzyl]-1H-Indole-5-Carboxylic Acid]",70 nM,2200 nM,2100 nM,5200 nM
"CC(C)COc1ccc(Br)cc1Cn1ccc2nc(C(=O)O)ccc21 [Example 73, 1-(5-Bromo-2-Isobutoxy-Benzyl)-1H-Pyrrolo[3,2-B]Pyridine-5-Carboxylic Acid]",≥ 10000 nM,9000 nM,≥ 10000 nM,≥ 10000 nM
"CC(C)COc1ccc(Br)cc1Cn1cnc2cc(C(=O)O)ccc21 [Example 79, 1-(5-Bromo-2-Isobutoxy-Benzyl)-1H-Benzoimidazole-5-Carboxylic Acid]",80 nM,7000 nM,2000 nM,8700 nM
"CCc1nn(Cc2cc(Br)ccc2OCC(C)C)c2ccc(C(=O)O)cc12 [Example 64, 1-(5-Bromo-2-Isobutoxy-Benzyl)-3-Ethyl-1H-Indazole-5-Carboxylic Acid]",50 nM,700 nM,260 nM,2900 nM
"CCC(CC)Oc1ccc(Br)cc1Cn1ncc2cc(C(=O)O)ccc21 [Example 51, 1-[5-Bromo-2-(1-Ethyl-Propoxy)-Benzyl]-1H-Indazole-5-Carboxylic Acid]",270 nM,1100 nM,600 nM,2600 nM
"CCC(CC)COc1ccc(Cl)cc1Cn1ncc2ccc(C(=O)O)cc21 [Example 46, 1-[5-Chloro-2-(2-Ethyl-Butoxy)-Benzyl]-1H-Indazole-6-Carboxylic Acid]",≥ 10000 nM,≥ 10000 nM,2500 nM,≥ 10000 nM
"CCC(CC)COc1ccc(Br)cc1Cn1nc(C)c2cc(C(=O)O)ccc21 [Example 27, 1-[5-Bromo-2-(2-Ethyl-Butoxy)-Benzyl]-3-Methyl-1H-Indazole-5-Carboxylic Acid]",53 nM,440 nM,1600 nM,2600 nM
"Cc1nn(Cc2cc(OC(F)(F)F)ccc2OCC(C)C)c2ccc(C(=O)O)cc12 [Example 22, 1-(2-Isobutoxy-5-Trifluoromethoxy-Benzyl)-3-Methyl-1H-Indazole-5-Carboxylic Acid]",350 nM,6000 nM,1700 nM,≥ 10000 nM
"CCC(CC)COc1ccc(Cl)cc1Cn1nc(C)c2cc(C(=O)O)ccc21 [Example 23, 1-[5-Chloro-2-(2-Ethyl-Butoxy)-Benzyl]-3-Methyl-1H-Indazole-5-Carboxylic Acid]",50 nM,500 nM,900 nM,1200 nM
"CCC(CC)COc1ccc(Cl)cc1Cn1ncc2cc(C(=O)O)ncc21 [Example 63, 1-[5-Chloro-2-(2-Ethyl-Butoxy)-Benzyl]-1H-Pyrazolo[3,4-C]Pyridine-5-Carboxylic Acid]",2500 nM,5000 nM,≥ 10000 nM,7400 nM
